Here are results for seven compounds from US6878732B2, “NK1 antagonists” (Schering Corporation, priority 2002, dated 2005).

pKi: −log10 of the molar value. Values joined by “and” are separate entries in the source; they are usually repeats but may differ in a detail not shown here. Equal values may be shown once.

As usually defined, the pKi is the Ki on a negative log10 scale, so that one unit is a factor of ten. Low values mean a large Ki, high ones a small Ki.

NK1 receptor, sequence (P25103 whole entry, species assumed): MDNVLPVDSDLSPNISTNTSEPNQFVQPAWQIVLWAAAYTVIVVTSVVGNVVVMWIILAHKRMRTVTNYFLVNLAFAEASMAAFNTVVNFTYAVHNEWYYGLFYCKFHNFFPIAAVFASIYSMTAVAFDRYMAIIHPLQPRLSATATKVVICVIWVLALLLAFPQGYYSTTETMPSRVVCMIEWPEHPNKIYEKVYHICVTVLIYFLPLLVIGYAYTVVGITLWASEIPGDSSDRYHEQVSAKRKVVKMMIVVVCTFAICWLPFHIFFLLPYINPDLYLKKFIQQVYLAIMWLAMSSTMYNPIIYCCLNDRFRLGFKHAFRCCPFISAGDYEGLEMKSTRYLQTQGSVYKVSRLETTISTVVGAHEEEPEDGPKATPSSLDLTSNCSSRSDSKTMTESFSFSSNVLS

In the test the target is NK1 receptor (Homo sapiens, UniProt P25103). Description: NK1 receptor binding: inhibition of Substance P binding, Ki by the Chang-Prusoff equation. The conditions noted are these: inhibition constant from the concentration giving 50% inhibition of binding; procedure of Duffy et al. The source says:
The percent of MSB is defined by the following equation, wherein “dpm” represents “disintegrations per minute”: [formula]
As to `C[C@@H](OC[C@]1(c2ccccc2)C[C@]2(C1)NC(=O)NC2=O)c1cc(C(F)(F)F)cc(C(F)(F)F)c1` [Example 11a], the pKi was 8.75 to 9.89. For `C[C@@H](OC[C@]1(c2ccccc2)C[C@@]2(C1)NC(=O)NC2=O)c1cc(C(F)(F)F)cc(C(F)(F)F)c1` [Example 11b] the value was 8.75 to 9.89; for `C[C@@H](OC[C@]1(c2ccccc2)C[C@@]2(CNC(=O)N2)C1)c1cc(C(F)(F)F)cc(C(F)(F)F)c1` [Example 12b], 8.75 to 9.89. Next, `CNC(=O)[C@]1(N)C[C@@](CO[C@H](C)c2cc(C(F)(F)F)cc(C(F)(F)F)c2)(c2ccccc2)C1` [Example 27]: 8.75 to 9.89; `C[C@@H](OC[C@]1(c2ccccc2)C[C@](N)(C(N)=O)C1)c1cc(C(F)(F)F)cc(C(F)(F)F)c1` [Example 28]: 8.75 to 9.89. Next, `C[C@@H](OC[C@]1(c2ccccc2)C[C@]2(C1)N=CNC2=O)c1cc(C(F)(F)F)cc(C(F)(F)F)c1` [Example 46]: 8.75 to 9.89; `C[C@@H](OC[C@]1(c2ccccc2)C[C@]2(C1)NCNC2=O)c1cc(C(F)(F)F)cc(C(F)(F)F)c1` [Example 49]: 8.75 to 9.89 and 9.70.
